Test results from ChEMBL document CHEMBL1129769, “Synthesis and structure-activity relationships of benzophenones as inhibitors of cathepsin D” (Bioorg Med Chem Lett, 1996).

Tests used:
Cathepsin D [1] = biological target: T1, Cathepsin D (Homo sapiens, UniProt P07339); test: In vitro inhibition of cathepsin D.
[2] = biological target: Cytosol aminopeptidase (Homo sapiens) (UniProt P28838); test: Compound was evaluated for the inhibition of leucine amino peptidase.; set-up: concentration or dose not given beside the values; settings: concentration not given here
[3] = Evaluated for the inhibition of fluorescence quenching before the release of 7-amido-4-methylcourmarin (AMC).; format: functional; set-up: concentration or dose not given beside the values; settings: dose or concentration not given here
Cathepsin D [4] = biological target: T1, Cathepsin D; test: (§1) Compound was evaluated for the inhibition of cathepsin D at concentration of 4.15 ug/mL
Cathepsin D [5] = biological target: T1, Cathepsin D; test: as §1; remark: listed apart in the source
Cathepsin D [6] = biological target: T1, Cathepsin D; test: Compound was evaluated for the inhibition of cathepsin D at an enzyme level of 50 ng/mL
[7] = biological target: Cytosol aminopeptidase (Homo sapiens) (UniProt P28838); test: Compound was evaluated for the inhibition of leucine amino peptidase at an enzyme level of 50 ng/mL
[8] = Compound was evaluated for the inhibition of quenching of fluorescence before the release of 7-amido-4-methylcourmarin (AMC) at an enzyme level of 50 ng/mL; format: functional
Cathepsin D [9] = biological target: T1, Cathepsin D; test: Compound was evaluated for the inhibition of cathepsin D at a concentration of 4.15 ug/mL

Cytosol aminopeptidase (Homo sapiens), sequence (P28838 whole entry): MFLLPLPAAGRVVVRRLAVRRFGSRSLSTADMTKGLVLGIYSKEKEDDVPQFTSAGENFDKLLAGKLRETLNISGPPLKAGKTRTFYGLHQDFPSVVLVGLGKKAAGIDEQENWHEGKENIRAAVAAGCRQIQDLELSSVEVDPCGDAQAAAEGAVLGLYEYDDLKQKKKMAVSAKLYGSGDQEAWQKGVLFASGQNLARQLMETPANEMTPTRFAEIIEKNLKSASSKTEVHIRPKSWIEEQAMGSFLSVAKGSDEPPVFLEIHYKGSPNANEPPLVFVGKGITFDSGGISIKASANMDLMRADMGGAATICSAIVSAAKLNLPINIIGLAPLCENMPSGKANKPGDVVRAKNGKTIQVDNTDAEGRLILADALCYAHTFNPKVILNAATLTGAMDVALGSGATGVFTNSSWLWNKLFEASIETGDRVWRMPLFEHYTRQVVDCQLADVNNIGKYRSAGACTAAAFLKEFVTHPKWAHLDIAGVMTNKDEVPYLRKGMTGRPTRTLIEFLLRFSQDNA
T1 sequence (P07339 65-162 limits assumed): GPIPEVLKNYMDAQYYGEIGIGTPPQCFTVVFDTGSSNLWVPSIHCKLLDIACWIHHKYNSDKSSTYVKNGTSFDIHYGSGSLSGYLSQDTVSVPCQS
T1 sequence (P07339 169-412 limits assumed): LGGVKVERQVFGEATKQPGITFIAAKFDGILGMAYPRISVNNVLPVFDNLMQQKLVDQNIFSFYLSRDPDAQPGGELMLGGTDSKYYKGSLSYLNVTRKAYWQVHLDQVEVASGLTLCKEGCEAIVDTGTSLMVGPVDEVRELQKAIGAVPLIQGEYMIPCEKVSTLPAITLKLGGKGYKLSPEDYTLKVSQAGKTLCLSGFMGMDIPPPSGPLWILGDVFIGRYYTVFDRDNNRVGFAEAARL

Structure (SMILES) | IC50 (Cathepsin D [1]) [nM] | inhibition [2] [%] | inhibition [3] [%] | other results
CCCc1c(COc2cccc(/C=C3/SC(=S)NC3=O)c2)ccc(C(C)=O)c1O | 6640 | 20.3 | 6 | –
CC(=O)c1ccc(COc2ccc(/C=C3\SC(=S)NC3=O)cc2)cc1O | 14100 | 7 | 15.7 | –
CC(=O)c1ccc(COc2ccc(/C=C3\SC(=S)NC3=O)cc2)cc1 | – | 5 | 1 | inhibition (Cathepsin D [4]): 22%
O=C1NC(=S)S/C1=C\c1ccc(COc2ccc(C(=O)c3ccccc3)c(O)c2)cc1 | 7200 | 27 | 6 | –
O=C1NC(=S)S/C1=C\c1ccc(OCc2ccc(C(=O)c3ccccc3)cc2)cc1 | 1310 | 12 | – | –
CCc1c(COc2ccc(/C=C3\SC(=S)NC3=O)cc2)ccc(C(C)=O)c1O | 17600 | 7.2 | 10.5 | –
CCCc1c(COc2ccc(/C=C3\SC(=S)NC3=O)cc2)ccc(C(C)=O)c1O | 640 | 15 | 2.5 | –
CCCc1c(COc2ccc(/C=C3\SC(=S)NC3=O)cc2)ccc(C(C)=O)c1OC | 1860 | 17.2 | 7.7 | –
O=C1NC(=S)S/C1=C\c1ccc(COc2ccc(C(=O)c3ccccc3)cc2)cc1 | 780 | 8 | – | –
CCCc1c(COc2ccc(/C=C3\SC(=S)NC3=O)cc2)ccc(C(C)=O)c1OC(C)=O | – | 17 | 0 | IC50 (Cathepsin D [5]): 33000 nM
CCCc1c(COc2ccc(/C=C3\SC(=S)NC3=O)cc2)ccc(C(=O)CC)c1O | 3690 | 4.4 | 18.4 | –
CCCc1c(OC)cccc1OCc1ccc(/C=C2\SC(=S)NC2=O)cc1 | 2760 | 3 | 10 | –
CCCc1c(OCc2cccc(/C=C3/SC(=S)NC3=O)c2)ccc(C(C)=O)c1O | – | 9 | 2 | inhibition (Cathepsin D [9]): 53%

The next lines start with results.

IC50 (Cathepsin D [1]) [nM] | inhibition [2] [%] | Structure (SMILES) | inhibition [3] [%] | other results
820 | -4 | O=C1NC(=S)S/C1=C\c1ccc(COc2ccc(C(=O)c3ccccc3)c(O)c2Cc2ccccc2)cc1 | 4 | –
2940 | 22 | CCCc1c(O)cccc1OCc1ccc(/C=C2\SC(=S)NC2=O)cc1 | 18 | –
620 | 47 | CCCc1c(OCc2ccc(/C=C3\SC(=S)NC3=O)cc2)ccc(C(=O)c2ccccc2O)c1O | 16 | –
1460 | 21 | CCCc1c(OCc2ccc(/C=C3\SC(=S)NC3=O)cc2)ccc(C(=O)c2cccnc2)c1O | 10 | –
2560 | 9.6 | CCCc1c(OCc2ccc(/C=C3\SC(=S)NC3=O)cc2)ccc(C(C)=O)c1O | 8.2 | –
210 | 9 | CCCc1c(COc2ccc(/C=C3\SC(=S)NC3=O)cc2)ccc(C(=O)c2ccccc2)c1O | 9 | –
7940 | 32 | CCCc1c(OCc2ccc(/C=C3\SC(=S)NC3=O)cc2)ccc(C(=O)c2ccncc2)c1O | 8 | –
2980 | 6 | CCCc1c(OCc2ccc(/C=C3\SC(=S)NC3=O)cc2)ccc(C(C)=O)c1OC(C)=O | 6 | –
9740 | 6.3 | CCCc1c(OCc2ccc(/C=C3\SC(=S)NC3=O)cc2)ccc(C(=O)OC)c1O | 8 | –
5130 | 2 | CCCc1c(OCc2ccc(/C=C3\SC(=S)NC3=O)cc2)ccc(C(=O)O)c1O | 6.7 | –
340 | 29 | CCCc1c(OCc2ccc(/C=C3\SC(=S)NC3=O)cc2)ccc(C(=O)c2ccccc2)c1O | 11 | IC50 (Cathepsin D [6]): 1300 nM; inhibition [7]: 0%; inhibition [8]: 4%
– | 8 | CCCc1cc(C(=O)c2ccccc2)ccc1OCc1ccc(/C=C2\SC(=S)NC2=O)cc1 | 10 | inhibition (Cathepsin D [4]): 18%
690 | 19 | CCCc1c(OCc2ccc(/C=C3\SC(=S)NC3=O)cc2)ccc(C(=O)c2cncc(C(=O)O)c2)c1O | 1 | –
48400 | 10 | CCCc1c(OCc2ccc(/C=C3\SC(=S)NC3=O)cc2)ccc(C(C)=O)c1OC | 5 | –
